From the kinase profiling compilation of Christmann-Franck et al. (2016)

Assays:
Assay in all cases: radiometric filter-binding kinase assay
TBK1 (human) = TBK1 (human) (UniProt Q9UHD2); conditions: compound 10.0 µM
CSNK1D (human) = CSNK1D (human) (UniProt P48730)
EPHB2 (human) = EPHB2 (human) (UniProt P29323)
MAPKAPK3 (human) = MAPKAPK3 (human) (UniProt Q16644)
MAP3K7 TAB1 (human) = MAP3K7 TAB1 (human) (UniProt Q15750+O43318)
EPHA4 (human) = EPHA4 (human) (UniProt P54764); conditions: compound 10.0 µM
IRAK4 (human) = IRAK4 (human) (UniProt Q9NWZ3); conditions: compound 10.0 µM
INSRR (human) = INSRR (human) (UniProt P14616)
[1] = test system: PAK2 (human), Q13177 [T402E]
[2] = test system: RPS6KB1 (human), P23443 [T412E]
FGFR1 (human) = FGFR1 (human) (UniProt P11362); conditions: compound 10.0 µM
INSR (human) = INSR (human) (UniProt P06213)
MELK (human) = MELK (human) (UniProt Q14680)
RIPK2 (human) = RIPK2 (human) (UniProt O43353)
RPS6KA3 KD1 KD2 (human) = RPS6KA3 KD1 KD2 (human) (UniProt P51812)
[3] = test system: SGK1 (human), O00141 [S422D]
CLK2 (human) = CLK2 (human) (UniProt P49760); conditions: compound 1.0 µM
BRSK2 (human) = BRSK2 (human) (UniProt Q8IWQ3)
MARK4 (human) = MARK4 (human) (UniProt Q96L34)
TTK (human) = TTK (human) (UniProt P33981)
CDK2 CCNA2 (human) = CDK2 CCNA2 (human) (UniProt P20248+P24941)
MAP2K2 (human) = MAP2K2 (human) (UniProt P36507)
JAK2 JH1 JH2 (human) = JAK2 JH1 JH2 (human) (UniProt O60674)
PLK1 (human) = PLK1 (human) (UniProt P53350)
MAPK8 (human) = MAPK8 (human) (UniProt P45983)
FLT1 (human) = FLT1 (human) (UniProt P17948)
AURKA (human) = AURKA (human) (UniProt O14965)
MAPK12 (human) = MAPK12 (human) (UniProt P53778)
CSK (human) = CSK (human) (UniProt P41240); conditions: compound 1.0 µM
MAP3K11 (human) = MAP3K11 (human) (UniProt Q16584)
PIM3 (human) = PIM3 (human) (UniProt Q86V86); conditions: compound 10.0 µM
PIM1 (human) = PIM1 (human) (UniProt P11309); conditions: compound 10.0 µM
SYK (human) = SYK (human) (UniProt P43405)
BRSK1 (human) = BRSK1 (human) (UniProt Q8TDC3); conditions: compound 1.0 µM

Sequence of AURKA (human) (O14965 whole entry, looked up): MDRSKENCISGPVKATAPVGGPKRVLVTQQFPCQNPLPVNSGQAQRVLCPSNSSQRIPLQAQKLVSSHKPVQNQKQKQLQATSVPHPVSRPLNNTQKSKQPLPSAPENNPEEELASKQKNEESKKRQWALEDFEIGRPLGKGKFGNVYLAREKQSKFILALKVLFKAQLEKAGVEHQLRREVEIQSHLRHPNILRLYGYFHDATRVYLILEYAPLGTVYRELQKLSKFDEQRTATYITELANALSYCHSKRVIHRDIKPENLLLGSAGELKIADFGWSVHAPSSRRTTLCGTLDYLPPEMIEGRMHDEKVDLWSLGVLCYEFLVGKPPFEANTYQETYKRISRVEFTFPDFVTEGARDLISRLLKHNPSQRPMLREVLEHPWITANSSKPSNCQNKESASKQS
Sequence of MARK4 (human) (Q96L34 whole entry, looked up): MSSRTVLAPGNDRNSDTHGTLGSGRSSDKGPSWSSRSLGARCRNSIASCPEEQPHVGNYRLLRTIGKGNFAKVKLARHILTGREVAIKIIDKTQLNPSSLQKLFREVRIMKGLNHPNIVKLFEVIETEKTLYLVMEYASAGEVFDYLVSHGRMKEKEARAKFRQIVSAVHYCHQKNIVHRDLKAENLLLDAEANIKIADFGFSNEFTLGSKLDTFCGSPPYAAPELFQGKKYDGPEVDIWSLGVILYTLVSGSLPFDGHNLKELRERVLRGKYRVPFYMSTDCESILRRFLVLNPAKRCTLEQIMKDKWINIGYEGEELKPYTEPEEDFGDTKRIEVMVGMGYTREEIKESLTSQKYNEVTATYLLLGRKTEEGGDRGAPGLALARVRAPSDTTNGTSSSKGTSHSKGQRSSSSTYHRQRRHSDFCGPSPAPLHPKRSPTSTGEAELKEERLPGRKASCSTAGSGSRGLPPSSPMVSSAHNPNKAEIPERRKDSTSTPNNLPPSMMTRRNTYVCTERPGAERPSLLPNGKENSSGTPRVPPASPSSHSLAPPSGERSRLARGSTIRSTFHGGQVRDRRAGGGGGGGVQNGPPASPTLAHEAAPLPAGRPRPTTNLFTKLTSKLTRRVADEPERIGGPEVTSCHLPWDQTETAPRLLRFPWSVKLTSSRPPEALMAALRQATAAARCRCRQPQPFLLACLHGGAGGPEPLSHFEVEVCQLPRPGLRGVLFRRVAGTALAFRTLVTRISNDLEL
Sequence of INSRR (human) (P14616 whole entry, looked up): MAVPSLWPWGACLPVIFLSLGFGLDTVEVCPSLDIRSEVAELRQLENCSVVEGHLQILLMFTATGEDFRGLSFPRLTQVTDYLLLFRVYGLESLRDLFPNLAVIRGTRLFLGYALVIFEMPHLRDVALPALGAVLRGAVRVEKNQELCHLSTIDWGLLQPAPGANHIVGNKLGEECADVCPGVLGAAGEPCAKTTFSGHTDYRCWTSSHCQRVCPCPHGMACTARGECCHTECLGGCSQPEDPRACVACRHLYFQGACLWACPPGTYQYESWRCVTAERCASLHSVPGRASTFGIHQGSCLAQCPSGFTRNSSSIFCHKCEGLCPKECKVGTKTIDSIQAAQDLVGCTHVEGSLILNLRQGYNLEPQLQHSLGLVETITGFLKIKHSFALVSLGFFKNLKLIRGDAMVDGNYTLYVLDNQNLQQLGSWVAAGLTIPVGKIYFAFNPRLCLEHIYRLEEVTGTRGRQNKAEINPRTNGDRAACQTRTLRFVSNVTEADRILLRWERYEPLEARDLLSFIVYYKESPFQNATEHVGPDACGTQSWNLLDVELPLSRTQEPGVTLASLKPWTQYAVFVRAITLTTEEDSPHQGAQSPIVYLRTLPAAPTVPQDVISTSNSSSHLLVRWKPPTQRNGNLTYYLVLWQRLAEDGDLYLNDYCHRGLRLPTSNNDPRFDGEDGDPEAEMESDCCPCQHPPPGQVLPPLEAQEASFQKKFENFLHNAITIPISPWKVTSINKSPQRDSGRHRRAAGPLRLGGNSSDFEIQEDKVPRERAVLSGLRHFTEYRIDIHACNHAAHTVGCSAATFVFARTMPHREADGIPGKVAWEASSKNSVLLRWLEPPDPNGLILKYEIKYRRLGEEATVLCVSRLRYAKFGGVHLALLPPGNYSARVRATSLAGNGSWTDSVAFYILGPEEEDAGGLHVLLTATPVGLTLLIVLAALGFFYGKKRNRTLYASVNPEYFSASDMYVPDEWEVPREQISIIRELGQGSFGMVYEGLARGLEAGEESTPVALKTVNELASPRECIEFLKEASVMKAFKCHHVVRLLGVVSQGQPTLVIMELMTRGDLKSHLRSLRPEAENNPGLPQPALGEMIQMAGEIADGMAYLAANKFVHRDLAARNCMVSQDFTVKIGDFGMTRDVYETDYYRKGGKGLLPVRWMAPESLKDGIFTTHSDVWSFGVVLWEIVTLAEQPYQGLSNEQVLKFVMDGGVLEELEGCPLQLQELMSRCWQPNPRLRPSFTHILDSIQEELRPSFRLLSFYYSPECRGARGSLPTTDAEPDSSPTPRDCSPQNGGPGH
Sequence of RPS6KB1 (human), P23443 [T412E] (P23443 whole entry T412E, looked up): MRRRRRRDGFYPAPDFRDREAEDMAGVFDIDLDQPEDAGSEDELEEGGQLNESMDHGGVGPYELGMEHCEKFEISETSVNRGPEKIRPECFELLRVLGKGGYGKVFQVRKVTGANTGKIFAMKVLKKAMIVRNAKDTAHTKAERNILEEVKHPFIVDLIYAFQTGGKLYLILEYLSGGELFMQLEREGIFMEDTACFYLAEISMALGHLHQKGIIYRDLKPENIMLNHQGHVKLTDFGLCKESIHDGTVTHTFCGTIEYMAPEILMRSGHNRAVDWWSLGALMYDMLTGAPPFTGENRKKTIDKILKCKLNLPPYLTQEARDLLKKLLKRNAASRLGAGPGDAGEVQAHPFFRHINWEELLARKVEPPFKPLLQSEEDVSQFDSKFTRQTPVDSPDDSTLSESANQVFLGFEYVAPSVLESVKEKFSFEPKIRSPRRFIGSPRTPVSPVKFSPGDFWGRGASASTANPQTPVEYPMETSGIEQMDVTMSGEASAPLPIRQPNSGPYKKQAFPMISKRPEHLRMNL
Sequence of SGK1 (human), O00141 [S422D] (O00141 whole entry S422D, looked up): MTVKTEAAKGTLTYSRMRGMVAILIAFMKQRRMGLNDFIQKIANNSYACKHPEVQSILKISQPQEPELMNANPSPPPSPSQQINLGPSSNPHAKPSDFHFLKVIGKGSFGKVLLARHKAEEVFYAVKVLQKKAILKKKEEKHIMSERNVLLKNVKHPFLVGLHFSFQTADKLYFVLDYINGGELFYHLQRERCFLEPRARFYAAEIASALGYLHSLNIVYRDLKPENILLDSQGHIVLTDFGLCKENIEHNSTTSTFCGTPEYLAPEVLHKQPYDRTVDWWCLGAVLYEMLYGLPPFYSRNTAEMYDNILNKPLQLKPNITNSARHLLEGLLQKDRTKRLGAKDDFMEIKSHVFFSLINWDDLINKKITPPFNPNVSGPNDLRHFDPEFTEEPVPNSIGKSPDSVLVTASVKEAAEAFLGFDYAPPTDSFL
Sequence of RPS6KA3 KD1 KD2 (human) (P51812 whole entry, looked up): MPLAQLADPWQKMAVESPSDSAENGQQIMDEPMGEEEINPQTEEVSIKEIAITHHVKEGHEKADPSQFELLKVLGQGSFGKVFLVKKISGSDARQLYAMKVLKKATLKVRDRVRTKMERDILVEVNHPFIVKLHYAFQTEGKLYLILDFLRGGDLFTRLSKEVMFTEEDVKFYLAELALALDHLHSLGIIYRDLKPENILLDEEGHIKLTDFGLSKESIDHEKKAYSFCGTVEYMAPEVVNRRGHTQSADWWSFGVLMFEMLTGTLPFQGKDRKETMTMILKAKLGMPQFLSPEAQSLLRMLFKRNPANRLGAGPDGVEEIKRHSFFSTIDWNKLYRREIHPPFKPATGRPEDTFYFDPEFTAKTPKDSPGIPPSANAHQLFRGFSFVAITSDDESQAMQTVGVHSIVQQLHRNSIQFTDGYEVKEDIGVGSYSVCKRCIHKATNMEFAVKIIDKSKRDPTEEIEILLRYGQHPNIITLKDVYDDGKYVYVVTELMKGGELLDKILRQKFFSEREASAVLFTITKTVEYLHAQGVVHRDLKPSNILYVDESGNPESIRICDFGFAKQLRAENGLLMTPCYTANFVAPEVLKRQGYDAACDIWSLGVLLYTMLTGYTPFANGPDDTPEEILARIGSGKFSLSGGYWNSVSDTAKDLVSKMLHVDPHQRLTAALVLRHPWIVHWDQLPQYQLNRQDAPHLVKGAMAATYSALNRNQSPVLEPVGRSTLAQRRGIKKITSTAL
Sequence of CSNK1D (human) (P48730 whole entry, looked up): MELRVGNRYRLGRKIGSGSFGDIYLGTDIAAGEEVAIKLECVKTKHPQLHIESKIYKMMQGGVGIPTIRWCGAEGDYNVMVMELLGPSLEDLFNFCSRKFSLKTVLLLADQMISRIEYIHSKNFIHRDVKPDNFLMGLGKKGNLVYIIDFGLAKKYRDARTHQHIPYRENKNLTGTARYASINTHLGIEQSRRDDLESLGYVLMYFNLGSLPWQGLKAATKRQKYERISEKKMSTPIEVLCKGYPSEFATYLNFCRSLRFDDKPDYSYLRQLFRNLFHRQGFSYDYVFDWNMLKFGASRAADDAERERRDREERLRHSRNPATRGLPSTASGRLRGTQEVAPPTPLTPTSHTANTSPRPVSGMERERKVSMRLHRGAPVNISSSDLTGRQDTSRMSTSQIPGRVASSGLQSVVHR
Sequence of MAPK12 (human) (P53778 whole entry, looked up): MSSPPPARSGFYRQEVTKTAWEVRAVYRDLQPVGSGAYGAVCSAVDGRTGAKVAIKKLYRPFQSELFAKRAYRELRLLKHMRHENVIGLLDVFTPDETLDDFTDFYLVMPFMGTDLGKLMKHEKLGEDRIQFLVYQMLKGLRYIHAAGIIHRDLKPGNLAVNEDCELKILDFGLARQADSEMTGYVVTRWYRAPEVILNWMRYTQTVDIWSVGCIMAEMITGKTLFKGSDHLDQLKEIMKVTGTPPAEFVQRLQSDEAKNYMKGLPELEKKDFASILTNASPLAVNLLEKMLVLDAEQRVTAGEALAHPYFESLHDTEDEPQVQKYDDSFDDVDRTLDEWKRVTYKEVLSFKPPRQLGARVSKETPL

Structure (SMILES): NS(=O)(=O)OC[C@@H]1C[C@@H](n2ccc3c(N[C@H]4CCc5ccccc54)ncnc32)C[C@@H]1O
- residual activity (TBK1 (human)): 88%
- residual activity (CSNK1D (human); compound 1.0 µM): 86%
- residual activity (CSNK1D (human); compound 10.0 µM): 84%
- residual activity (EPHB2 (human); compound 1.0 µM): 107%
- residual activity (EPHB2 (human); compound 10.0 µM): 109%
- residual activity (MAPKAPK3 (human); compound 1.0 µM): 103%
- residual activity (MAPKAPK3 (human); compound 10.0 µM): 101%
- residual activity (MAP3K7 TAB1 (human); compound 1.0 µM): 107%
- residual activity (MAP3K7 TAB1 (human); compound 10.0 µM): 105%
- residual activity (EPHA4 (human)): 105%
- residual activity (IRAK4 (human)): 99%
- residual activity (INSRR (human); compound 1.0 µM): 87%
- residual activity (INSRR (human); compound 10.0 µM): 83%
- residual activity ([1]; compound 1.0 µM): 98%
- residual activity ([1]; compound 10.0 µM): 93%
- residual activity ([2]; compound 1.0 µM): 94%
- residual activity ([2]; compound 10.0 µM): 85%
- residual activity (FGFR1 (human)): 126%
- residual activity (INSR (human); compound 1.0 µM): 89%
- residual activity (INSR (human); compound 10.0 µM): 93%
- residual activity (MELK (human); compound 1.0 µM): 87%
- residual activity (MELK (human); compound 10.0 µM): 91%
- residual activity (RIPK2 (human); compound 1.0 µM): 107%
- residual activity (RIPK2 (human); compound 10.0 µM): 121%
- residual activity (RPS6KA3 KD1 KD2 (human); compound 1.0 µM): 100%
- residual activity (RPS6KA3 KD1 KD2 (human); compound 10.0 µM): 96%
- residual activity ([3]; compound 1.0 µM): 95%
- residual activity ([3]; compound 10.0 µM): 112%
- residual activity (CLK2 (human)): 127%
- residual activity (BRSK2 (human); compound 1.0 µM): 92%
- residual activity (BRSK2 (human); compound 10.0 µM): 86%
- residual activity (MARK4 (human); compound 1.0 µM): 93%
- residual activity (MARK4 (human); compound 10.0 µM): 103%
- residual activity (TTK (human); compound 1.0 µM): 86%
- residual activity (TTK (human); compound 10.0 µM): 98%
- residual activity (CDK2 CCNA2 (human); compound 1.0 µM): 84%
- residual activity (CDK2 CCNA2 (human); compound 10.0 µM): 90%
- residual activity (MAP2K2 (human); compound 1.0 µM): 104%
- residual activity (MAP2K2 (human); compound 10.0 µM): 99%
- residual activity (JAK2 JH1 JH2 (human); compound 1.0 µM): 89%
- residual activity (JAK2 JH1 JH2 (human); compound 10.0 µM): 93%
- residual activity (PLK1 (human); compound 1.0 µM): 93%
- residual activity (PLK1 (human); compound 10.0 µM): 95%
- residual activity (MAPK8 (human); compound 1.0 µM): 84%
- residual activity (MAPK8 (human); compound 10.0 µM): 97%
- residual activity (FLT1 (human); compound 1.0 µM): 89%
- residual activity (FLT1 (human); compound 10.0 µM): 104%
- residual activity (AURKA (human); compound 1.0 µM): 103%
- residual activity (AURKA (human); compound 10.0 µM): 97%
- residual activity (MAPK12 (human); compound 1.0 µM): 101%
- residual activity (MAPK12 (human); compound 10.0 µM): 95%
- residual activity (CSK (human)): 78%
- residual activity (MAP3K11 (human); compound 1.0 µM): 92%
- residual activity (MAP3K11 (human); compound 10.0 µM): 92%
- residual activity (PIM3 (human)): 78%
- residual activity (PIM1 (human)): 103%
- residual activity (SYK (human); compound 1.0 µM): 92%
- residual activity (SYK (human); compound 10.0 µM): 104%
- residual activity (BRSK1 (human)): 89%
